# Measurements: PubChem BioAssay (NCI)
# “And” between values parts separate entries of the source, which are not always exact repeats. Equal values may be shown once.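 How tested: cells in 96-well plates exposed to compound for 48 hours at five concentrations. GI50: concentration for 50% inhibition of growth. TGI: concentration producing complete growth inhibition.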
# Key:
# Experiment in all cases: NCI tumour cell line growth inhibition, 48 h
# OVCAR-5 ovarian = test system: OVCAR-5 ovarian
# PC-3 prostate = test system: PC-3 prostate
# UO-31 renal = test system: UO-31 renal
# KM12 colon = test system: KM12 colon
# OVCAR-4 ovarian = test system: OVCAR-4 ovarian
# HCT-15 colon = test system: HCT-15 colon
# SR leukemia = test system: SR leukemia
# A549 NSCLC = test system: A549 NSCLC
# HL-60(TB) leukemia = test system: HL-60(TB) leukemia
# CAKI-1 renal = test system: CAKI-1 renal
Compound,TGI (OVCAR-5 ovarian),TGI (PC-3 prostate),TGI (UO-31 renal),TGI (KM12 colon),TGI (OVCAR-4 ovarian),TGI (HCT-15 colon),TGI (SR leukemia),TGI (A549 NSCLC),TGI (HL-60(TB) leukemia),TGI (CAKI-1 renal),GI50 (OVCAR-5 ovarian),GI50 (OVCAR-4 ovarian),GI50 (HCT-15 colon),GI50 (HL-60(TB) leukemia),GI50 (CAKI-1 renal)
CC(=O)Oc1ccc(C2SCc3nc4ccccc4n32)cc1 (stereo not drawn),> 100 µM,> 100 µM,> 61.5 µM,81.8 µM,> 100 µM,> 100 µM,> 73 µM,> 100 µM,37.8 µM,> 93.2 µM,–,–,–,–,–
Cc1nc2c(ccc3[nH]c4ccccc4c32)s1,> 100 µM,47.9 µM,74.8 µM,56.5 µM,> 100 µM,51.9 µM,87.8 µM,> 100 µM,> 100 µM,> 100 µM,–,–,–,–,–
NC(=O)NC(=O)c1cccc(C(=O)NC(N)=O)n1,> 100 µM,> 100 µM,> 100 µM,> 100 µM,> 100 µM,> 100 µM,> 100 µM,> 100 µM,> 100 µM,> 100 µM,–,–,–,–,–
O=C(O)COc1cccc2ccccc(=O)c12,> 100 µM,> 100 µM,> 100 µM,> 100 µM,> 100 µM,> 100 µM,> 100 µM,> 100 µM,> 100 µM,> 100 µM,–,–,–,–,–
O=[N+]([O-])c1cc(C2ON=C(c3ccccc3)N2C23CC4CC(CC(C4)C2)C3)ccc1Cl (stereo not drawn),> 100 µM,> 100 µM,> 100 µM,> 100 µM,> 100 µM,> 100 µM,> 100 µM,> 100 µM,> 100 µM,> 100 µM,–,–,–,–,–
Cc1c(OCc2cccc3ccccc23)ccc2c(=O)cc(S)oc12,> 100 µM,> 100 µM,> 100 µM,> 100 µM,> 100 µM,> 100 µM,62.1 µM,> 100 µM,59.7 µM,> 100 µM,–,–,–,–,–
COc1ccc2oc(=O)c(-c3nc4ccccc4s3)cc2c1,> 100 µM,> 100 µM,> 41.6 µM,> 100 µM,53.6 µM,> 100 µM,> 100 µM,> 41.9 µM,> 100 µM,> 51.8 µM,–,–,–,–,–
N#C[C@H](c1nc2ccccc2[nH]1)c1nc2ccccc2nc1Cl,> 66.2 µM,> 52.1 µM,> 76.7 µM,17.1 µM,> 53.9 µM,> 39.9 µM,13.8 µM,> 100 µM,3.12 µM,15.3 µM,–,–,–,–,–
CSc1c(C#N)c(=O)n(N)c2n[nH]c(C)c12,–,> 100 µM,> 100 µM,> 100 µM,> 100 µM,> 100 µM,> 100 µM,> 100 µM,> 100 µM,> 100 µM,–,–,–,–,–
O=C(O)Cc1ccc(-n2nnc3c(=O)[nH][nH]c(=O)c32)cc1,> 100 µM,> 100 µM,> 100 µM,> 100 µM,> 100 µM,> 100 µM,> 100 µM,> 100 µM,> 100 µM,> 100 µM,–,–,–,–,–
O=C1CN2CCN(CC2)CC(=O)Nc2ccc(cc2)S(=O)(=O)c2ccc(cc2)NC(=O)CN2CCN(CC2)CC(=O)Nc2ccc(cc2)S(=O)(=O)c2ccc(cc2)N1,67.7 µM,> 100 µM,> 100 µM,> 100 µM,> 100 µM,30.7 µM,> 100 µM,> 100 µM,> 100 µM,> 100 µM,–,–,–,–,–
c1ccc2c(CCNC3=NCCO3)cccc2c1,> 10 µM,> 10 µM,> 10 µM,> 10 µM,> 10 µM,> 10 µM,> 10 µM,> 10 µM,> 10 µM,> 10 µM,–,–,–,–,–
CC1(C)C/C=C\CCC(O)C(O)CCC(C)(C)C1=O (stereo not drawn),> 100 µM,> 100 µM,> 100 µM,> 100 µM,> 100 µM,> 100 µM,> 100 µM,> 100 µM,> 100 µM,> 100 µM,–,–,–,–,–
O=C1C=C(NCCc2ccc(O)cc2)C(=O)C=C1NCCc1ccc(O)cc1,> 100 µM,> 100 µM,> 100 µM,> 100 µM,> 100 µM,> 100 µM,> 100 µM,> 100 µM,71.2 µM,> 100 µM,–,–,–,–,–
CC(C)(C)OC(=O)/C=C/[C@@H](CCC(=O)/C=C/[C@H](/C=C\CCCC(=O)O)NC1(c2ccccc2)c2ccccc2-c2ccccc21)O[Si](C)(C)C(C)(C)C,43.6 µM,36.2 µM,29.8 µM,43.5 µM,53.9 µM,30.2 µM,> 100 µM,37.2 µM,86.1 µM,67.8 µM,–,–,–,–,–
CN1CCN2CCN(C)CCN(CC1)CC2,> 100 µM,> 100 µM,> 100 µM,> 100 µM,> 100 µM,> 100 µM,> 100 µM,> 100 µM,> 100 µM,> 100 µM,–,–,–,–,–
COC(=O)/C=C/c1cc(OC)c2c(c1)C(C(=O)OC)C(c1ccc(O)c(OC)c1)O2 (stereo not drawn),> 100 µM,> 100 µM,> 43.7 µM and 45.1 µM and 77.2 µM,> 88.2 µM and 20.9 µM and 15.7 µM,> 100 µM,> 100 µM and > 53.7 µM and 56.6 µM,> 25.7 µM and 3.91 µM,> 100 µM,–,14.3 µM and 11.9 µM and > 74 µM,48.8 µM and 55.2 µM and 22.3 µM,7.9 µM and 7.77 µM and 18 µM,2.74 µM and 1.52 µM and 0.629 µM,1.14 µM and 1.81 µM and 0.325 µM,2.63 µM and 2.04 µM and 12.2 µM
